Structures can show the parent of a compound that is named as a salt. Where two headings read alike, the source gives them in different places.
Key:
[1] = target: T1, isolated recombinant JAK2 kinase domain (Homo sapiens (Human), UniProt O60674); assay: biochemical
[2] = tested on: JAK1-dependent STAT6 phosphorylation downstream of IL-13 stimulation in TF-1 human erythroleukemia cells; assay: cells; conditions: TF-1, read-out: IL-13-pSTAT6 IC50
[3] = tested on: JAK1-dependent STAT6 phosphorylation downstream of IL-13 stimulation in BEAS-2B human bronchial epithelial cells; assay: cells; conditions: read-out: IL13-pSTAT6 BEASB2B IC50
Experimental: Inhibitor potency (EC50) was determined in cell-based assays designed to measure JAK1 dependent STAT phosphorylation.
Prior to use in the assays, TF-1 cells were starved of GM-CSF overnight in OptiMEM medium (Life Technologies, Grand Island, N.Y.) supplemented with 0.5% charcoal/dextran stripped fetal bovine serum (FBS), 0.1 mM non-essential amino acids (NEAA), and 1 mM sodium pyruvate. The assays were run in 384-well plates in serum-free OptiMEM medium using 300,000 cells per well. In a second assay approach, BEAS-2B human bronchial epithelial cells obtained from ATCC were plated at 100,000 cells per well of a 96-well plate one day prior to the experiment. The BEAS-2B assay was run in complete growth medium (bronchial epithelial basal medium plus bulletkit; Lonza; Basel, Switzerland).
Test compounds were serially diluted 1:2 in DMSO and then diluted 1:50 in medium just before use. Diluted compounds were added to the cells, for a final DMSO concentration of 0.2%, and incubated for 30 min (for the TF-1 assay) or 1 hr (for the BEAS-2B assay) at 37° C. Then, cells were stimulated with human recombinant cytokine at their respective EC90 concentrations, as previously determined for each individual lot. […] The resultant samples were frozen in the plates at −80° C. Compound mediated inhibition of STAT6 phosphorylation was measured in the cell lysates using MesoScale Discovery (MSD) technology (Gaithersburg, Md.).

[4] = target: T1, isolated recombinant JAK2 kinase domain; conditions: read-out: JAK2 Ki
[5] = tested on: JAK1-dependent STAT6 phosphorylation downstream of IL-13 stimulation in TF-1 human erythroleukemia cells; conditions: read-out: IL-13-pSTAT6 IC50, TF-1 cells
[6] = isolated recombinant JAK2 kinase domain, 25 μM ATP

T1 sequence (O60674 849-1124): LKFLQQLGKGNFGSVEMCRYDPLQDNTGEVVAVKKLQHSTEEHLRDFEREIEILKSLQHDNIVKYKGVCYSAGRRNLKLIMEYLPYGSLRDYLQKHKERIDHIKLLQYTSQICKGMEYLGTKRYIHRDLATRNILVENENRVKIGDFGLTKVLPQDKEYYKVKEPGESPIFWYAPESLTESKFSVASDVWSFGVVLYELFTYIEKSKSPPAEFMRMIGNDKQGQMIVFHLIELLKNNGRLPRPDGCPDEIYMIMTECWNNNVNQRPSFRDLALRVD

Row | SMILES | Ki [1] [nM] | IC50 [2] [nM] | IC50 [3] [nM] | Ki [4, 6] [nM] | other results
1 | CC(=O)NC1CCN(c2cccn3nc(Nc4ccc(C(=O)N(C)C5CCN(C)CC5)cc4)nc23)CC1 [Example 1-9, 4-[[8-(4-acetamido-1-piperidyl)-[1,2,4]triazolo[1,5-a]pyridin-2-yl]amino]-N-methyl-N-(1-methyl-4-piperidyl)benzamide; hydrochloride] | 63.2 |  |  |  | 
2 | CC(=O)N1CCN(c2cccn3nc(Nc4ccc(C(=O)N(C)C5CCN(C)CC5)cc4)nc23)CC1 [Example 1-10, 4-[[8-(4-acetylpiperazin-1-yl)-[1,2,4]triazolo[1,5-a]pyridin-2-yl]amino]-N-methyl-N-(1-methyl-4-piperidyl)benzamide] | 74.7 | > 10000 |  |  | 
3 | CN1CCC(N(C)C(=O)c2ccc(Nc3nc4c(N5CCC(C#N)CC5)cccn4n3)cc2)CC1 [Example 1-11, 4-[[8-(4-cyano-1-piperidyl)-[1,2,4]triazolo[1,5-a]pyridin-2-yl]amino]-N-methyl-N-(1-methyl-4-piperidyl)benzamide] | 6.28 | 235 |  |  | 
4 | CN1CCC(N(C)C(=O)c2ccc(Nc3nc4c(N5CCCCC5)cccn4n3)cc2)CC1 [Example 1-12, N-methyl-N-(1-methyl-4-piperidyl)-4-[[8-(1-piperidyl)-[1,2,4]triazolo[1,5-a]pyridin-2-yl]amino]benzamide; dihydrochloride] | 77.5 | 3400 |  |  | 
5 | CN1CCC(N(C)C(=O)c2ccc(Nc3nc4c(N5CCN(c6ccccc6)CC5)cccn4n3)cc2)CC1 [Example 1-13, N-methyl-N-(1-methyl-4-piperidyl)-4-[[8-(4-phenylpiperazin-1-yl)-[1,2,4]triazolo[1,5-a]pyridin-2-yl]amino]benzamide] | 13.1 | 494 |  |  | 
6 | CN1CCC(N(C)C(=O)c2ccc(Nc3nc4c(N5CCC(O)(c6cccnc6)CC5)cccn4n3)cc2)CC1 [Example 1-19, 4-[[8-[4-hydroxy-4-(3-pyridyl)-1-piperidyl]-[1,2,4]triazolo[1,5-a]pyridin-2-yl]amino]-N-methyl-N-(1-methyl-4-piperidyl)benzamide] | 32 |  |  |  | 
7 | CN1CCC(N(C)C(=O)c2ccc(Nc3nc4c(N5CCC(C(C)(C)O)CC5)cccn4n3)cc2)CC1 [Example 1-29, 4-[[8-[4-(1-hydroxy-1-methyl-ethyl)-1-piperidyl]-[1,2,4]triazolo[1,5-a]pyridin-2-yl]amino]-N-methyl-N-(1-methyl-4-piperidyl)benzamide] | 47.4 |  |  |  | 
8 | CN1CCC(N(C)C(=O)c2ccc(Nc3nc4c(N5CCC(O)(c6ccc(F)cc6)CC5)cccn4n3)cc2)CC1 [Example 1-37, 4-[[8-[4-(4-fluorophenyl)-4-hydroxy-1-piperidyl]-[1,2,4]triazolo[1,5-a]pyridin-2-yl]amino]-N-methyl-N-(1-methyl-4-piperidyl)benzamide] | 6.7 | 76.3 |  |  | 
9 | CC(C)c1ccc(C2(O)CCN(c3cccn4nc(Nc5ccc(C(=O)N(C)C6CCN(C)CC6)cc5)nc34)CC2)cc1 [Example 1-38, 4-[[8-[4-hydroxy-4-(4-isopropylphenyl)-1-piperidyl]-[1,2,4]triazolo[1,5-a]pyridin-2-yl]amino]-N-methyl-N-(1-methyl-4-piperidyl)benzamide] | 5.59 | 152 |  |  | 
10 | CN1CCC(N(C)C(=O)c2ccc(Nc3nc4c(N5CCC(CC#N)(c6ccccc6)CC5)cccn4n3)cc2)CC1 [Example 1-41, 4-[[8-[4-(cyanomethyl)-4-phenyl-1-piperidyl]-[1,2,4]triazolo[1,5-a]pyridin-2-yl]amino]-N-methyl-N-(1-methyl-4-piperidyl)benzamide] |  | 15.9 | 42 | 0.2 | 
11 | O=C(c1ccc(Nc2nc3c(N4CCC(O)(c5ccc(Cl)cc5)CC4)cccn3n2)cc1)N1CCC(N2CCOCC2)CC1 [Example 1-125, [4-[[8-[4-(4-chlorophenyl)-4-hydroxy-1-piperidyl]-[1,2,4]triazolo[1,5-a]pyridin-2-yl]amino]phenyl]-(4-morpholino-1-piperidyl)methanone] |  | 16.4 | 42.8 | 0.63 | 
12 | NCCNC(=O)c1ccc(Nc2nc3c(N4CCC(O)(c5ccc(Cl)cc5)CC4)cccn3n2)cc1 [Example 1-175, N-(2-aminoethyl)-4-[[8-[4-(4-chlorophenyl)-4-hydroxy-1-piperidyl]-[1,2,4]triazolo[1,5-a]pyridin-2-yl]amino]benzamide] | 0.92 | 189 |  |  | 
13 | O=C(c1ccc(Nc2nc3c(N4CCC(O)(c5ccc(Cl)cc5)CC4)cccn3n2)cc1)N1CCNCC1 [Example 1-177, [4-[[8-[4-(4-chlorophenyl)-4-hydroxy-1-piperidyl]-[1,2,4]triazolo[1,5-a]pyridin-2-yl]amino]phenyl]-piperazin-1-yl-methanone] | 1.51 | 23.2 |  |  | 
14 | CN1CCC(N(C)C(=O)c2ccc(Nc3nc4c(N5CCC(CCC#N)(c6ccc(Cl)cc6)CC5)cccn4n3)cc2)CC1 [Example 1-247, 4-{8-[4-(4-Chloro-phenyl)-4-(2-cyano-ethyl)-piperidin-1-yl]-1,8a-dihydro[1,2,4]triazolo[1,5-a]pyridine-2-ylamino}-N-methyl-N-(1-methyl-piperidin-4-yl)-benzamide] |  | 18.4 | 115 | 0.33 | 
15 | CCOC(=O)CC1(c2ccc(Cl)cc2)CCN(c2cccn3nc(Nc4ccc(C(=O)N(C)C5CCN(C)CC5)cc4)nc23)CC1 [Example 1-254] |  | 89.9 | 661 | 0.39 | 
16 | CN1CCC(N(C)C(=O)c2ccc(Nc3nc4c(N5CCC(CC(F)F)(c6ccc(Cl)cc6)CC5)cccn4n3)cc2)CC1 [Example 1-256, 4-([8-[4-(4-chlorophenyl)-4-(2,2-difluoroethyl)piperidin-1-yl]-[1,2,4]triazolo[1,5-a]pyridin-2-yl]amino)-N-methyl-N-(1-methylpiperidin-4-yl)benzamide] |  | 56.3 | 426 | 0.69 | 
17 | CN1CCC(N(C)C(=O)c2ccc(Nc3nc4c(N5CCC(CO)(c6ccc(C(F)F)cc6)CC5)cccn4n3)cc2)CC1 [Example 1-267, 4-[(8-[4-[4-(difluoromethyl)phenyl]-4-(hydroxymethyl)piperidin-1-yl]-[1,2,4]triazolo[1,5-a]pyridin-2-yl)amino]-N-methyl-N-(1-methylpiperidin-4-yl)benzamide] |  |  | 32.4 |  | Ki [4]: 0.25 nM
18 | CC(=O)NCC1(c2ccc(Cl)cc2)CCN(c2cccn3nc(Nc4ccc(C(=O)N(C)C5CCN(C)CC5)cc4)nc23)CC1 [Example 1-268, 4-([8-[4-(4-chlorophenyl)-4-(acetamidomethyl)piperidin-1-yl]-[1,2,4]triazolo[1,5-a]pyridin-2-yl]amino)-N-methyl-N-(1-methylpiperidin-4-yl)benzamide] |  |  | 56.2 | 0.38 | 
19 | CN1CCCC12CN(C(=O)c1ccc(Nc3nc4c(N5CCC(CO)(c6ccc(Cl)cc6)CC5)cccn4n3)cc1)C2 [Example 1-274, [4-[[8-[4-(4-chlorophenyl)-4-(hydroxymethyl)-1-piperidyl]-[1,2,4]triazolo[1,5-a]pyridin-2-yl]amino]phenyl]-(5-methyl-2,5-diazaspiro[3.4]octan-2-yl)methanone] |  | 7.9 | 28.9 | 0.17 | 
20 | CNC1CN(C(=O)c2ccc(Nc3nc4c(N5CCC(CO)(c6ccc(Cl)cc6)CC5)cccn4n3)cc2)C1 [Example 1-283, [4-[[8-[4-(4-chlorophenyl)-4-(hydroxymethyl)-1-piperidyl]-[1,2,4]triazolo[1,5-a]pyridin-2-yl]amino]phenyl]-[3-(methylamino)azetidin-1-yl]methanone] | 0.15 | 15.5 | 31.3 |  | 
21 | COC(=O)CCN1CCN(C(=O)Cn2cc(Nc3nc4c(N5CCC(CO)(c6ccc(Cl)cc6)CC5)cccn4n3)cn2)CC1 [Example 1-290, Methyl 3-(4-[2-[4-([8-[4-(4-chlorophenyl)-4-(hydroxymethyl)piperidin-1-yl]-[1,2,4]triazolo[1,5-a]pyridin-2-yl]amino)-1H-pyrazol-1-yl]acetyl]piperazin-1-yl)propanoate] |  |  | 5.9 | 0.3 | 
22 | CN1CCC(N(C)C(=O)c2ccc(Nc3nc4c(N5C[C@@H]6C[C@](O)(c7ccccc7)C[C@@H]6C5)cccn4n3)cc2)CC1 [Example 1-292] | 18.5 |  |  |  | 
23 | CN1CCC(N(C)C(=O)c2ccc(Nc3nc4c(C5=CCN(C(=O)C6CCC(C#N)CC6)CC5)cccn4n3)cc2)CC1 (stereo not shown) [Example 2-285, 4-[[8-[1-(4-cyanocyclohexanecarbonyl)-3,6-dihydro-2H-pyridin-4-yl]-[1,2,4]triazolo[1,5-a]pyridin-2-yl]amino]-N-methyl-N-(1-methyl-4-piperidyl)benzamide] |  |  |  |  | IC50 [5]: 739 nM
24 | CNC(=O)C1CN(C(C)C)CCN1C(=O)c1ccc(Nc2nc3c(C4=CCN(C(=O)CCC(F)(F)F)CC4)cccn3n2)cc1 (stereo not shown) [Example 2-327, 4-isopropyl-N-methyl-1-[4-[[8-[1-(4,4,4-trifluorobutanoyl)-3,6-dihydro-2H-pyridin-4-yl]-[1,2,4]triazolo[1,5-a]pyridin-2-yl]amino]benzoyl] piperazine-2-carboxamide] |  |  |  |  | IC50 [5]: 19.9 nM

Source: US9873709B2 (priority 2013, dated 2018)
